Results as given in patent publication US11021481B2, “Substituted isoindolin-1-ones and 2,3-dihydro-1h-pyrrolo[3,4-c]pyridin-1-ones as HPK1 antagonists” (Nimbus Saturn, Inc., priority 2019, dated 2021).

Target: HPK1 (Homo sapiens (Human), UniProt Q92918)
Assay: HPK1 biochemical enzyme assay (microfluidic mobility shift assay)
Conditions: 1.5 nM HPK1, ATP 1 mM final, 30 min preincubation, 60 min at RT, Caliper EZ Reader; read-out: HPK1 1000UMATP caliper IC50
In short: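 Mobility shift readout of HPK1 activity after a 60 min RT reaction with 1 mM ATP, 1 μM substrate and 5 mM MgCl2. Enzyme/substrate mix was first exposed to compounds for 30 min, using ten-point curves topping at 3 μM final.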

HPK1, sequence (Q92918 whole entry): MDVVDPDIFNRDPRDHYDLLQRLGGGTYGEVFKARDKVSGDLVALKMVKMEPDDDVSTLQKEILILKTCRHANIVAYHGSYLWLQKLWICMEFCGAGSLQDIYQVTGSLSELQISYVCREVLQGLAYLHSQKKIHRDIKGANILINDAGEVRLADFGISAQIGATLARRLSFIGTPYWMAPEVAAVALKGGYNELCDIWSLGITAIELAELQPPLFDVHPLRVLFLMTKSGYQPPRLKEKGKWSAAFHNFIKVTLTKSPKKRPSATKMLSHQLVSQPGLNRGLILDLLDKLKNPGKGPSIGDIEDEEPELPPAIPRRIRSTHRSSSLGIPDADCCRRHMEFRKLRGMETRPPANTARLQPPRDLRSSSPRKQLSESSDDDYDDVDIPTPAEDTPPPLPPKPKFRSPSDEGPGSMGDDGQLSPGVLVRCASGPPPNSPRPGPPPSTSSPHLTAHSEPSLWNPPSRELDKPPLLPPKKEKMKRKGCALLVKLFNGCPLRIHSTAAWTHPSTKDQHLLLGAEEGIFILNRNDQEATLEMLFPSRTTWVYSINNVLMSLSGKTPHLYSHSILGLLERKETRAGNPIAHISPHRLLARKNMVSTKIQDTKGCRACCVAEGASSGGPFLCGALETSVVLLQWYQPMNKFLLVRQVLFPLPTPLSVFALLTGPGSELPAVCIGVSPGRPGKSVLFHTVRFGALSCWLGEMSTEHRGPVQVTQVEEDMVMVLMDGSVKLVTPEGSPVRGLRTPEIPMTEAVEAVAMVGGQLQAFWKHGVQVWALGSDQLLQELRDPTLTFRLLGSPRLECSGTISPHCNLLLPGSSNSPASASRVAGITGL

Q: How did the IC50 turn out when `CN(C)Cc1nc(Nc2cnc(-c3ccnc4c3ccn4C)c3c2C(=O)NC3)ccc1N1CCOC2(CC2)C1` [I-839, 7-((6-((dimethylamino)-methyl)-5-(4-oxa-7-azaspiro[2.5]octan-7-yl)pyridin-2-yl)amino)-4-(1-methyl-1H-pyrrolo[2,3-b]pyridin-4-yl)-2,3-dihydro-1H-pyrrolo[3,4-c]pyridin-1-one] was run?
A: The IC50 was under 100 nM.

Q: `C[C@@H]1C[C@H](O)CCN1c1ccc(Nc2ccc(-c3cnc4cnccn34)c3c2C(=O)NC3)nc1` [I-350, 7-((5-((2R,4R]-4-hydroxy-2-methylpiperidin-1-yl)pyridin-2-yl)amino)-4-(imidazo[1,2-a]pyrazin-3-yl)isoindolin-1-one] was tested. Which IC50 did it give?
A: The IC50 was under 100 nM.

Q: Which IC50 does the source give for `CN1CCN(c2cccc(Nc3cnc(-c4ccnc5c4ccn5C)c4c3C(=O)NC4)n2)CC1` [I-327, 4-(1-methyl-1H-pyrrolo[2,3-b]pyridin-4-yl)-7-((6-(4-methylpiperazin-1-yl)pyridin-2-yl)amino)-2,3-dihydro-1H-pyrrolo[3,4-c]pyridin-1-one] here?
A: The IC50 was under 100 nM.

Q: For `COCC1CN(c2ccc(Nc3ccc(-c4cnc5cc(F)ccn45)c4c3C(=O)NC4)nc2CN(C)C)CCO1` (stereo in doubt) [I-712, (S)-7-((6-((dimethylamino)-methyl)-5-(2-(methoxymeth-yl)morpho-lino)pyridin-2-yl)amino)-4-(7-fluoroimidazo [1,2-a]pyridin-3-yl)isoindolin-1-one], which IC50 is on record?
A: The IC50 was under 100 nM.

Q: For `Cc1ccn2c(-c3ccc(Nc4ccc(N5CCC[C@@H](O)C5)cn4)c4c3CNC4=O)cnc2c1` [I-172, 7-[[5-[(3R)-3-hydroxy-1-piperipyl]-2-pyridyl]amino]-4-(7-methylimidazo [1,2-a]pyridin-3-yl)isoindolin-1-one], which IC50 is on record?
A: The IC50 was under 100 nM.

Q: For `Cc1c[nH]c2nccc(-c3ncc(Nc4ccc(N5CCN(C)CC5)cn4)c4c3CNC4=O)c12` [I-19, 7-[[5-(4-methylpiperazin-1-yl)-2-pyridyl]amino]-4-(3-methyl-1H-pyrrolo[2,3-b]pyridin-4-yl)-2,3-dihydropyrrolo [3,4-c]pyridin-1-one], which IC50 is on record?
A: Its IC50 is under 100 nM.

Q: For `C[C@H](c1ccc(Nc2ccc(-c3cnc4cc(F)ccn34)c3c2C(=O)NC3)nc1)N1CCC[C@H](O)C1` (stereo in doubt) [I-514, 4-(7-fluoroimidazo [1,2-a]pyridin-3-yl)-7-((5-((R)-1-((S)-3-hydroxypiperidin-1-yl)ethyl)pyridin-2-yl)amino)isoin-dolin-1-one], which IC50 is on record?
A: Its IC50 is under 100 nM.

Q: For `Cn1ccc2c(-c3ccc(Nc4ccc(N5CCNCC5)cn4)c4c3C(C)(C)NC4=O)ccnc21` [I-273, 3,3-dimethyl-4-(1-methyl-1H-pyrrolo[2,3-b]pyridin-4-yl)-7-((5-(piperazin-1-yl)pyridin-2-yl)amino)isoindolin-1-one], which IC50 is on record?
A: Its IC50 is over 1000 nM.

Q: `CN(C)Cc1nc(Nc2ccc(-c3cnc4cc(F)ccn34)c3c2C(=O)NC3)ccc1N1CCC[C@@H](O)C1` [I-524, 7-[[6-[(dimethylamino)-methyl]-5-[(3R)-3-hydroxy-1-piperipyl]-2-pyridyl]amino]-4-(7-fluoroimidazo [1,2-a]pyridin-3-yl)isoindolin-1-one] was tested. Which IC50 did it give?
A: Its IC50 is under 100 nM.

Q: With `CNC1CCN(c2ccc(Nc3ccc(-c4ccnc5[nH]ccc45)c4c3C(=O)NC4)nc2)CC1` [I-57, 7-[[5-[4-(methylamino)-1-piperidyl]-2-pyridyl]amino]-4-(1H-pyrrolo[2,3-b]pyridin-4-yl)isoindolin-1-one] as the compound, how does the IC50 read?
A: The IC50 was under 100 nM.

Q: With `Cc1ccc2c(-c3ccc(Nc4ccc(C5CCOC5)c(CN(C)C)n4)c4c3CNC4=O)cnn2c1` (stereo in doubt) [I-732, (R)-7-((6-((dimethylamino)-methyl)-5-(tetrahydrofuran-3-yl)pyridin-2-yl)amino)-4-(6-methylpyra-zolo[1,5-a]pyridin-3-yl)isoindolin-1-one] as the compound, how does the IC50 read?
A: Its IC50 is under 100 nM.

Q: Which IC50 does the source give for `Cn1ccc2c(-c3ncc(Nc4ccc([C@H]5CCOC5)c(CN5CC[C@H](O)C5)n4)c4c3CNC4=O)ccnc21` [I-812, 7-((6-(((S)-3-hydroxypyrroli-din-1-yl)methyl)-5-((R)-THF-3-yl)pyridin-2-yl)amino)-4-(1-methyl-1H-pyrrolo[2,3-b]pyridin-4-yl)-2,3-dihydro-1H-pyrrolo[3,4-c]pyridin-1-one] here?
A: The IC50 was under 100 nM.

Q: For `CN1CCN(c2cccc(Nc3ccc(-c4cnc5cc(F)ccn45)c4c3C(=O)NC4)n2)CC1` [I-230, 4-(7-fluoroimidazo [1,2-a]pyridin-3-yl)-7-[[6-(4-methylpiperazin-1-yl)-2-pyridyl)amino] isoindolin-1-one], which IC50 is on record?
A: The IC50 was under 100 nM.

Q: With `COC1(c2ccc(Nc3ccc(-c4cnc5cc(F)ccn45)c4c3C(=O)NC4)nc2CN(C)C)CCOCC1` [I-830, 7-((6-((dimethylamino)-methyl)-5-(4-methoxytetra-hydro-2H-pyran-4-yl)pyridin-2-yl)amino)-4-(7-fluoroimidazo [1,2-a]pyridin-3-yl)isoindolin-1-one] as the compound, how does the IC50 read?
A: Its IC50 is under 100 nM.

Q: For `Cn1ccc2c(-c3ncc(Nc4cccc(N5C[C@H](CN6CCC6)CCC5=O)n4)c4c3CNC4=O)ccnc21` [I-689, (S)-7-((6-(5-(azetidin-1-ylmethyl)-2-oxopiperidin-1-yl)pyridin-2-yl)amino)-4-(1-methyl-1H-pyrrolo[2,3-b]pyridin-4-yl)-2,3-dihydro-1H-pyrrolo[3,4-c]pyridin-1-one], which IC50 is on record?
A: Its IC50 is 100 to 1000 nM.

Q: With `Cn1ccc2c(-c3ncc(Nc4cccc(N5CC[C@@H]6CNC[C@@H]65)n4)c4c3CNC4=O)ccnc21` [I-441, 7-((6-((3aR,6aR)-hexahydro-pyrrolo[3,4-b]pyrrol-1(2H)-yl)pyridin-2-yl)amino)-4-(1-methyl-1H-pyrrolo[2,3-b)pyridin-4-yl)-2,3-dihydro-1H-pyrrolo[3,4-c]pyridin-1-one] as the compound, how does the IC50 read?
A: The IC50 was 100 to 1000 nM.

Q: Which IC50 does the source give for `Cc1ccc2ncc(-c3ccc(Nc4ccc(N5CCC(O)CC5)cn4)c4c3CNC4=O)n2c1` [I-134, 7-[[5-(4-hydroxy-1-piperidyl)-2-pyridyl]amino]-4-(6-methylimidazo [1,2-a]pyridin-3-yl)isoindolin-1-one] here?
A: The IC50 was under 100 nM.

Q: `Cc1ccn2c(-c3ccc(Nc4ccc(N5CC[C@H](F)[C@@H](O)C5)cn4)c4c3CNC4=O)cnc2c1F` [I-584, 7-((5-((3S.4S)-4-fluoro-3-hydroxypiperidin-1-yl)pyridin-2-yl)amino)-4-(8-fluoro-7-methylimidazo [1,2-a]pyridin-3-yl)isoindolin-1-one] was tested. Which IC50 did it give?
A: The IC50 was under 100 nM.

Q: `CN(C)C(C)(C)C1CN(c2ccc(Nc3ccc(-c4cnc5cc(F)ccn45)c4c3C(=O)NC4)nc2)CCO1` (stereo not shown) [I-564, 7-((5-(2-(2-(dimethylami-no)propan-2-yl)morpholino)pyridin-2-yl)amino)-4-(7-fluoroimidazo [1,2-a]pyridin-3-yl)isoindolin-1-one] was tested. Which IC50 did it give?
A: The IC50 was under 100 nM.

Q: Which IC50 does the source give for `O=C1NCc2c(-c3cnc4cc(F)ccn34)ccc(Nc3cccc(N4CCC5CNCC54)n3)c21` (stereo not shown) [I-493] here?
A: The IC50 was under 100 nM.

Q: With `CN(C)C(C)(C)C1CCCN(c2ccc(Nc3ccc(-c4cnc5cc(F)ccn45)c4c3C(=O)NC4)nc2)C1` (stereo in doubt) [I-606, (R)-7-((5-(3-(2-(dimethylami-no)propan-2-yl)piperidin-1-yl)pyridin-2-yl)amino)-4-(7-fluoroimidazo [1,2-a]pyridin-3-yl)isoindolin-1-one] as the compound, how does the IC50 read?
A: The IC50 was under 100 nM.

Q: How did the IC50 turn out when `Cc1cnc2c(ccn2C)c1-c1ccc(Nc2ccc(N3CCNCC3)cn2)c2c1CNC2=O` [I-99, 4-(l,5-dimethylpyrrolo [2,3-b]pyridin-4-yl)-7-[(5-piperazin-1-yl-2-pyridyl)amino] isoindolin-1-one] was run?
A: Its IC50 is 100 to 1000 nM.
